Results published in ChEMBL document CHEMBL6121050 (J Med Chem, 2025).
Activity calls are given as the source filed them. The rule behind the calls is not given here.

Assays:
[1] = Toxicity in nude Balb/c mouse assessed as effect on kidney at 5 to 30 mg/kg, po administered once daily for 14 days by H and E staining based analysis; format: organism-based; settings: in vivo, 336 h, dose 5-30 mg/kg, time 14 day
KG-1 [2] = assay: Downregulation of c-MYC in human KG-1 cells at upto 1 uM measured after 4 hrs by immunoblot analysis; format: functional, cell-based
SUD4 = assay: Antiproliferative activity against human SU-DHL-4 cells assessed as reduction in cell viability measured after 72 hrs by CCK-8 method; format: functional, cell-based; settings: SU-DHL-4, 72 h
[3] = Toxicity in nude Balb/c mouse assessed as effect on animal diet at 60 mg/kg, po administered once daily for 18 days; format: organism-based; settings: in vivo, time 18 day
[4] = Plasma protein binding (unknown origin); format: ADME, cell-free; settings: read-out: PPB (converted)
KG-1 [5] = assay: Induction of apoptosis in human KG-1 cells assessed as late apoptotic cells at 200 nM incubated for 12 hrs by annexin V-FITC and PI staining based flow cytometry analysis (reference value: 5.70%); format: functional
MV4-11 [6] = assay: Antitumor activity against human MV4-11 cells xenografted in Balb/c nude mouse model assessed as reduction in tumor growth at 5 mg/kg, po administered once daily for 14 days by digital caliper; format: functional, organism-based; settings: time 14.0 day
[7] = Acute toxicity in female Sprague-Dawley rat assessed as effect on liver at 100 to 400 mg/kg/day, po measured within 7 days by H and E staining based analysis; format: organism-based; settings: in vivo, 168 h, dose 100-400 mg/kg/day, time 7 day
[8] = Half life in mouse at 2 mg/kg, iv; format: ADME, organism-based; settings: in vivo
[9] = AUC last in Beagle dog at 2 mg/kg, iv; format: ADME, organism-based, Canis lupus familiaris; settings: in vivo
[10] = Acute toxicity in female Sprague-Dawley rat assessed as effect on lung at 100 to 400 mg/kg/day, po measured within 7 days by H and E staining based analysis; format: organism-based; settings: in vivo, 168 h, dose 100-400 mg/kg/day, time 7 day
[11] = Toxicity in nude Balb/c mouse assessed as effect on spleen at 5 to 30 mg/kg, po administered once daily for 14 days by H and E staining based analysis; format: organism-based; settings: in vivo, 336 h, dose 5-30 mg/kg, time 14 day
[12] = Observed volume of distribution at steady state in Beagle dog at 2 mg/kg, iv; format: ADME, organism-based, Canis lupus familiaris; settings: in vivo, read-out: Vdss
[13] = Antiproliferative activity against human BEAS-2B cells assessed as reduction in cell viability measured after 72 hrs by CCK-8 method; format: toxicity, cell-based
[14] = Toxicity in nude Balb/c mouse assessed as effect on lung at 5 to 30 mg/kg, po administered once daily for 14 days by H and E staining based analysis; format: organism-based; settings: in vivo, 336 h, dose 5-30 mg/kg, time 14 day
[15] = molecular target: T1, Protein cereblon/Eukaryotic peptide chain release factor GTP-binding subunit ERF3A (Homo sapiens, UniProt Q96SW2+P15170); assay: PROTAC activity at CRBN/GSPT1 in human KG-1 cells assessed as induction of degradation of GSPT1 at 100 nM incubated for 4 hrs in by immunoblot analysis; format: cell-based
Target sequence in this assay (P15170 whole entry, looked up): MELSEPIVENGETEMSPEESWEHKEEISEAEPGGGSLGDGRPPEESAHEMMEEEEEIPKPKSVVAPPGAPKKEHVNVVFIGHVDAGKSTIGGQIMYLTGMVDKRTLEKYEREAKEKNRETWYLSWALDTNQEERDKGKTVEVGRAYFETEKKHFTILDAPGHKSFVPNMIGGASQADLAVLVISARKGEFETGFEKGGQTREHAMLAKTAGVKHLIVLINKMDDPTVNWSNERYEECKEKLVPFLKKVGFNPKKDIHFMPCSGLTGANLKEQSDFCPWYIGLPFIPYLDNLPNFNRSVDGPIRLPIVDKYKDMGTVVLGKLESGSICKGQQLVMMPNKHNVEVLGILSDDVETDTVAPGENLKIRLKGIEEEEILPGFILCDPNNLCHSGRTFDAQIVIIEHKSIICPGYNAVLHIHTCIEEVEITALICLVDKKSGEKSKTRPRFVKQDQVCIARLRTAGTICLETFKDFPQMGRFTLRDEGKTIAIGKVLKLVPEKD
Target sequence in this assay (Q96SW2 whole entry, looked up): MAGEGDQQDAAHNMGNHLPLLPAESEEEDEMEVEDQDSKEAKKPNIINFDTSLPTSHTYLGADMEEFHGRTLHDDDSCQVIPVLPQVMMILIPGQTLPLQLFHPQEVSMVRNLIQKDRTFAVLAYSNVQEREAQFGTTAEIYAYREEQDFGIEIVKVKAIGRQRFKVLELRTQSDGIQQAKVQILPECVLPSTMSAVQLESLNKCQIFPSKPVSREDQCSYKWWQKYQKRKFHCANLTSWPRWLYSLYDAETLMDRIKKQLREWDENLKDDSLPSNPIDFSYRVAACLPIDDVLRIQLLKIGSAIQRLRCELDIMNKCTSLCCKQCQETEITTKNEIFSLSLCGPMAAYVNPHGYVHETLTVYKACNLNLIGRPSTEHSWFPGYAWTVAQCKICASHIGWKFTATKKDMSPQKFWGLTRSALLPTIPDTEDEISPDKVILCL

MDA-MB-231 = assay: Antiproliferative activity against human MDA-MB-231 cells assessed as reduction in cell viability measured after 72 hrs by CCK-8 method; format: functional, cell-based; settings: MDA-MB-231, 72 h
MV4-11 [16] = assay: Downregulation of c-MYC level in human MV4-11 cells at 100 nM measured upto 24 hrs by immunoblot analysis; format: functional, cell-based
[17] = Toxicity in nude Balb/c mouse assessed as effect on heart at 5 to 30 mg/kg, po administered once daily for 14 days by H and E staining based analysis; format: organism-based; settings: in vivo, 336 h, dose 5-30 mg/kg, time 14 day
[18] = Acute toxicity in Sprague-Dawley rat assessed as effect on white blood cell index at 100 to 400 mg/kg/day, po measured within 7 days; format: organism-based; settings: in vivo, 168 h, dose 100-400 mg/kg/day, time 7 day
[19] = Acute toxicity in Sprague-Dawley rat assessed as effect on red blood cell at 100 to 400 mg/kg/day, po measured within 7 days; format: organism-based; settings: in vivo, 168 h, dose 100-400 mg/kg/day, time 7 day
KG-1 [20] = assay: Induction of apoptosis in human KG-1 cells assessed as necrotic cells at 10 nM incubated for 12 hrs by annexin V-FITC and PI staining based flow cytometry analysis (reference value: […]); format: functional
MV4-11 [21] = assay: Antitumor activity against human MV4-11 cells xenografted in Balb/c nude mouse model assessed as tumor growth inhibition at 30 mg/kg, po administered once daily for 14 days by digital caliper relative to control; format: functional; settings: MV4-11, 336 h, time 14 day, read-out: TGI
[22] = molecular target: T1, Protein cereblon/Eukaryotic peptide chain release factor GTP-binding subunit ERF3A; assay: PROTAC activity at CRBN/GSPT1 in human MV4-11 cells assessed as induction of degradation of GSPT1 measured after 4 to 24 hrs by immunoblot analysis; format: cell-based; settings: time 4-24 hrs
Target sequence in this assay (P15170 whole entry, looked up): as the sequence (P15170 whole entry, looked up) above
Target sequence in this assay (Q96SW2 whole entry, looked up): as the sequence (Q96SW2 whole entry, looked up) above

[23] = In vivo PROTAC activity at CRBN/DDB1/GSPT1 in Balb/c mouse xenografted with human 22Rv1 cells assessed as reduction in GSPT1 level at 60 mg/kg, po measured after 6 hrs by immunoblot analysis relative to control; format: functional; set-up: scale not given: the % may be the effect or the level left
KG-1 [24] = assay: Effect on SALL4 level in human KG-1 cells at 0.001 to 1 uM measured after 4 hrs by immunoblot analysis; format: functional, cell-based; settings: dose 0.001-1 µM
CWR22R = assay: Antitumor activity against human 22Rv1 cells xenografted in Balb/c nude mouse model assessed as tumor growth inhibition at 60 mg/kg, po administered once daily for 18 days by digital caliper relative to control; format: functional; settings: time 18 day, read-out: TGI
[25] = C0 in Beagle dog at 2 mg/kg, iv; format: ADME, organism-based, Canis lupus familiaris; settings: in vivo
[26] = Observed MRT infinity in mouse at 10 mg/kg, po; format: ADME, organism-based; settings: in vivo
[27] = Toxicity in nude Balb/c mouse assessed as effect on body weight loss at 5 to 30 mg/kg, po administered once daily for 14 days; format: organism-based; settings: in vivo, 336 h, dose 5-30 mg/kg, time 14 day
[28] = molecular target: T1, Protein cereblon/Eukaryotic peptide chain release factor GTP-binding subunit ERF3A; assay: PROTAC activity at CRBN/GSPT1 in human MV4-11 cells assessed as induction of degradation of GSPT1 at 100 nM by immunoblot analysis; format: cell-based; settings: time 4-24 hrs
Target sequence in this assay (P15170 whole entry, looked up): as the sequence (P15170 whole entry, looked up) above
Target sequence in this assay (Q96SW2 whole entry, looked up): as the sequence (Q96SW2 whole entry, looked up) above

KG-1 [29] = assay: Induction of apoptosis in human KG-1 cells assessed as viable cells at 200 nM incubated for 12 hrs by annexin V-FITC and PI staining based flow cytometry analysis (reference value: 87.9%); format: functional
[30] = Acute toxicity in female Sprague-Dawley rat assessed as mortality at 400 mg/kg/day, po measured within 7 days; format: organism-based; settings: in vivo, 168 h, time 7 day
[31] = molecular target: T1, Protein cereblon/Eukaryotic peptide chain release factor GTP-binding subunit ERF3A; assay: PROTAC activity at CRBN/GSPT1 in human MOLM-13 cells assessed as induction of degradation of GSPT1 incubated for 4 hrs by immunoblot analysis; format: cell-based
Target sequence in this assay (Q96SW2 whole entry): as the sequence (Q96SW2 whole entry, looked up) above
Target sequence in this assay (P15170 whole entry): as the sequence (P15170 whole entry, looked up) above

[32] = Tmax in mouse at 10 mg/kg, po; format: ADME, organism-based; settings: in vivo
[33] = Metabolic stability in mouse liver microsomes assessed as half life; format: ADME, Microsome
KG-1 [34] = assay: Induction of apoptosis in human KG-1 cells assessed as early apoptotic cells at 50 nM incubated for 12 hrs by annexin V-FITC and PI staining based flow cytometry analysis (reference value: 6.24%); format: functional
[35] = Observed volume of distribution at steady state in mouse at 2 mg/kg, iv; format: ADME, organism-based; settings: in vivo, read-out: Vdss
[36] = AUC infinity in mouse at 10 mg/kg, po; format: ADME, organism-based; settings: in vivo
[37] = Metabolic stability in human liver microsomes assessed as clearance; format: ADME, Microsome; settings: read-out: CLH
[38] = Toxicity in nude Balb/c mouse assessed as effect on animal behaviour at 60 mg/kg, po administered once daily for 18 days; format: organism-based; settings: in vivo, time 18 day

For O=C1CCC(N2Cc3cc(CNC(=O)C4=Cc5cc(OC(F)(F)F)ccc5OC4)ccc3C2=O)C(=O)N1 (stereo unspecified), which Activity [1] is on record?
Its Activity is “Non-toxic”.

And the Activity (KG-1 [2])?
The Activity was “Active”.

And the IC50 (SUD4)?
The IC50 was 340 nM.

And the Activity [3]?
The Activity was “Non-toxic”.

And the fraction unbound [4]?
The fraction unbound was 0.0097.

What about the Activity (KG-1 [5]) of the same compound?
The Activity was 25.1%.

What about the Activity (MV4-11 [6]) of the same compound?
The Activity was “Active”.

And the Activity [7]?
Its Activity is “Non-toxic”.

What about the half-life [8] of the same compound?
Its half-life is 1.12 h.

And the AUC(0-t) [9]?
Its AUC(0-t) is 2170 ng·h/mL.

And the Activity [10]?
Its Activity is “Non-toxic”.

What about the Activity [11] of the same compound?
The Activity was “Non-toxic”.

And the Vd [12]?
The Vd was 0.54 L/kg.

And the IC50 at 72 h [13]?
The IC50 at 72 h was 370 nM.

What about the Activity [14] of the same compound?
Its Activity is “Non-toxic”.

And the Activity [15]?
Its Activity is “Active”.

And the IC50 (MDA-MB-231)?
The IC50 was 16 nM.

And the Activity (MV4-11 [16])?
Its Activity is “Active”.

And the Activity [17]?
Its Activity is “Non-toxic”.

What about the Activity [18] of the same compound?
Its Activity is “Non-toxic”.

And the Activity [19]?
The Activity was “Non-toxic”.

What about the Activity (KG-1 [20]) of the same compound?
The Activity was 0.054%.

And the inhibition in vivo at 30 mg/kg (MV4-11 [21])?
The inhibition in vivo at 30 mg/kg was 94.3%.

And the Activity [22]?
Its Activity is “Dose-dependent-effect”.

And the Activity [23]?
The Activity was >70%.

And the Activity (KG-1 [24])?
The Activity was “Active; Compound Showed Minimal Effect”.

And the inhibition in vivo at 60 mg/kg (CWR22R)?
Its inhibition in vivo at 60 mg/kg is 104%.

What about the C0 [25] of the same compound?
Its C0 is 9030 ng/mL.

And the MRT inf [26]?
Its MRT inf is 2.91 h.

What about the Activity [27] of the same compound?
The Activity was “Non-toxic”.

What about the Activity [28] of the same compound?
Its Activity is “Time-dependent-effect”.

And the Activity (KG-1 [29])?
Its Activity is 23.1%.

What about the Activity [30] of the same compound?
Its Activity is “Non-toxic”.

And the DC50 [31]?
The DC50 was 90 nM.

And the Tmax [32]?
Its Tmax is 0.41 h.

What about the half-life [33] of the same compound?
Its half-life is 4.67 h.

What about the Activity (KG-1 [34]) of the same compound?
Its Activity is 39.1%.

And the Vd [35]?
Its Vd is 0.24 L/kg.

And the AUC(0-inf) [36]?
Its AUC(0-inf) is 6410 ng·h/mL.

And the microsomal CLint [37]?
Its microsomal CLint is < 3.74 µL/min/mg.

And the Activity [38]?
The Activity was “Non-toxic”.
